Test results as given in US10668052B2, “Combinations of isomers of dihydrotetrabenazine” (ADEPTIO PHARMACEUTICALS LIMITED, priority 2017, dated 2020).
“Also recorded” adds a separate entry of the source. Read-outs that look alike come from different tables or passages of the source.

Tests used:
[1] = tested on: amphetamine induced locomotor activity in male CD rats; conditions: for total distance travelled: normalised
Protocol: Male CD (Charles River Laboratories, Germany) at weight range of 200-250 g (165-200 g upon arrival) were used for the experiments. Animals were housed at a standard temperature (22±1° C.) and in a light-controlled environment (lights on from 7 am to 8 pm) with ad libitum access to food and water.
The locomotor activity of the rats was tested in an open field arena. The open field test was performed during the rat light cycle and under a normal lighting evenly distributed to the test chambers. The paths of the rats were recorded by activity monitor (Med. Associates Inc.).
The rats were placed in the centre of the arena, and the path was recorded for 30 minutes. After 30 minutes of testing, vehicle or amphetamine was dosed and the rat was placed in the centre of the arena, and the path was recorded for 60 minutes, the total testing time being 90 minutes.

[2] = Pharmacokinetic study of tetrabenazine and dihydrotetrabenazine metabolites in plasma after oral tetrabenazine 25 mg tablets; assay type: in vivo, human; conditions: for metabolite of tetrabenazine in humans (major/minor): after administration of tetrabenazine; for Cmax / AUC / Tmax / AUC(0-t) / AUC(0-inf) / half-life: human, plasma; for AUC: read-out: area under the curve (AUC); for Tmax: N=08, healthy adult male volunteers; for AUC(0-t): po; for Kel: unit inferred
Protocol: A pharmacokinetic study was carried out in healthy adult male volunteers under fasting conditions at a dose of single and multiple oral administration of 25 mg tablets once a day to ascertain the plasma levels of +/−α and +/−β dihydrotetrabenazine.
Table 1 summarises the pharmacokinetic data obtained following single-dose oral administration of tetrabenazine at a dose level of 25 mg (fasting, N=08).
Table 2 summarises the pharmacokinetic data obtained following multiple-dose oral administration of tetrabenazine at a dose level of 25 mg (fasting, N=07).

[3] = biological target: Chromaffin Granule Monoamine Transporter (Bos taurus, UniProt Q27963); conditions: racemic isomers, in vitro; cited from earlier work
[4] = oral, 25 mg, single dose study, tetrabenazine to adult male humans
[5] = single-dose oral tetrabenazine 25 mg, fasting
[6] = male, 25 mg, multiple-dose oral tetrabenazine 25 mg once a day, fasting, N=07
[7] = male, 25 mg, single-dose oral tetrabenazine 25 mg, fasting, N=08
[8] = male, single-dose oral tetrabenazine 25 mg, fasting, N=08
[9] = multiple-dose oral tetrabenazine 25 mg once a day, fasting, N=07
[10] = single-dose oral tetrabenazine 25 mg, fasting, N=08
[11] = Study 4, 1 mg/kg, compared to vehicle-amphetamine group
[12] = Study 6, each isomer 1 mg/kg, risperidone 1 mg/kg, compared to vehicle-amphetamine group, unnormalised

Chain of Chromaffin Granule Monoamine Transporter (Q27963 whole entry): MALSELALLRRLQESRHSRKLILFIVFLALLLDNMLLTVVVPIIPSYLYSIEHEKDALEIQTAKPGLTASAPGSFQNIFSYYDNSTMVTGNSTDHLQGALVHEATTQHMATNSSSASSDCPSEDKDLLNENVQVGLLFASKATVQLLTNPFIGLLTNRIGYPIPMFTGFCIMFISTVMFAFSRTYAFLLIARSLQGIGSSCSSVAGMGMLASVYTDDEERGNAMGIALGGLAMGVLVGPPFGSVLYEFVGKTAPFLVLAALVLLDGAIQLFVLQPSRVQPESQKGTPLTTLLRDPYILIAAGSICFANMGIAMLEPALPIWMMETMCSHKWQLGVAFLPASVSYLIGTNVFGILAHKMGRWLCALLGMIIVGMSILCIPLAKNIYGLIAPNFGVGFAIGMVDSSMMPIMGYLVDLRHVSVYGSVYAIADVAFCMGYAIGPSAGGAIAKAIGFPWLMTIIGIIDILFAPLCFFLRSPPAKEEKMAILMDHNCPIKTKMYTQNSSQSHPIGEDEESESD

| Compound | Cmax [2, 4] [ng/mL] | AUC [2, 4] [ng·h/mL] | Tmax [2, 5] [h] | AUC(0-t) [2, 6] [ng·h/mL] | AUC(0-t) [2, 7] [ng·h/mL] | AUC(0-inf) [2, 8] [ng·h/mL] | Cmax [2, 8] [ng/mL] | half-life [2, 8] [h] | Cmaxss [2, 9] [ng/mL] | Cminss [2, 9] [ng/mL] | Ctss [2, 9] [ng/mL] | Tmaxss Mean [2, 9] [h] | Extrapolated AUC [2, 10] [%] | Kel [2, 10] [h⁻¹] | further results |
| --- | --- | --- | --- | --- | --- | --- | --- | --- | --- | --- | --- | --- | --- | --- | --- |
| α-dihydrotetrabenazine | – | – | – | – | – | – | – | – | – | – | – | – | – | – | affinity relative to the β-isomer [3]: 3- to 4 fold |
| Cc1nc2n(c(=O)c1CCN1CCC(c3noc4cc(F)ccc34)CC1)CCCC2 [risperidone, reference compound] | – | – | – | – | – | – | – | – | – | – | – | – | – | – | total distance travelled ([1]; Study 1, 1 mg/kg, compared to vehicle-amphetamine group): significantly different; locomotor activity [1, 11]: lower locomotor activity; stereotypic behaviour [1, 11]: reduced stereotypic behaviour; total distance travelled / locomotor activity [1, 12]: lower locomotor activity; total stereotypic behaviour [1, 12]: reduced stereotypic behaviour |

More lines, main results first:

| Cmax [2, 4] [ng/mL] | AUC [2, 4] [ng·h/mL] | Tmax [2, 5] [h] | AUC(0-t) [2, 6] [ng·h/mL] | AUC(0-t) [2, 7] [ng·h/mL] | AUC(0-inf) [2, 8] [ng·h/mL] | Cmax [2, 8] [ng/mL] | half-life [2, 8] [h] | Cmaxss [2, 9] [ng/mL] | Cminss [2, 9] [ng/mL] | Ctss [2, 9] [ng/mL] | Tmaxss Mean [2, 9] [h] | Extrapolated AUC [2, 10] [%] | Kel [2, 10] [h⁻¹] | Compound | further results |
| --- | --- | --- | --- | --- | --- | --- | --- | --- | --- | --- | --- | --- | --- | --- | --- |
| 72.9 | 306 | 0.938 | 474 | 306 | 352 | 72.9 | 7.89 | 98.34 | 5.61 | 6.10 | 96.96 | 10.59 | 0.1 | COc1cc2c(cc1OC)[C@@H]1C[C@H](O)[C@@H](CC(C)C)CN1CC2 [(−)-α-DHTBZ, (2S,3S,11bS)-3-isobutyl-9,10-dimethoxy-1,3,4,6,7,11b-hexahydro-2H-pyrido[2,1,a]isoquinolin-2-ol] | total stereotypic behaviour ([1]; Study 1, 2.5 mg/kg, compared to vehicle-amphetamine group): did not lead to lower locomotor activity or reduced stereotypic behaviour; total distance travelled / locomotor activity ([1]; Study 1, 2.5 mg/kg, compared to vehicle-amphetamine group, listed as (−)-α-isomer, 2.5 mg/kg): very little, if any, reduction in induced locomotor activity; total distance travelled ([1]; Study 1, 2.5 mg/kg, compared to vehicle-vehicle group): significantly different; observed behaviour of the rats ([1]; rat, in vivo, 2.5 mg/kg): less focused on what was going on around them; metabolite of tetrabenazine in humans (major/minor) ([2]; listed as (−)-α-dihydrotetrabenazine): major metabolites; also recorded: main metabolites |
| – | – | 0.87 | 2.79 | 1.87 | 2.42 | 0.58 | 4.35 | 0.73 | 0.01 | – | 96.89 | 27.54 | 0.19 | COc1cc2c(cc1OC)C1CC(=O)C(CC(C)C)CN1CC2 (racemic) [Tetrabenazine, 1,3,4,6,7,11b-hexahydro-9,10-dimethoxy-3-(2-methylpropyl)-2H-benzo(a)quinolizin-2-one] | – |
| 2.61 | 7.98 | 1.16 | 13.7 | 7.98 | 10.8 | 2.61 | 4.79 | 3.31 | 0.00 | 0.44 | 97.18 | 32.10 | 0.17 | COc1cc2c(cc1OC)[C@H]1C[C@@H](O)[C@H](CC(C)C)CN1CC2 [(+)-α-DHTBZ, (2R,3R,11bR)-3-isobutyl-9,10-dimethoxy-1,3,4,6,7,11b-hexahydro-2H-pyrido[2,1,a]isoquinolin-2-ol] | metabolite of tetrabenazine in humans (major/minor) [2]: minor metabolites |
| 103 | 376 | 1.12 | 599 | 376 | 410 | 103 | 5.8 | 144.76 | 5.45 | 5.54 | 97.11 | 5.03 | 0.13 | COc1cc2c(cc1OC)[C@H]1C[C@H](O)[C@H](CC(C)C)CN1CC2 [(+)-β-DHTBZ, (2S,3R,11bR)-3-isobutyl-9,10-dimethoxy-1,3,4,6,7,11b-hexahydro-2H-pyrido[2,1,a]isoquinolin-2-ol] | metabolite of tetrabenazine in humans (major/minor) ([2]; listed as (+)-β-dihydrotetrabenazine): major metabolites; also recorded: main metabolites |
